# Assay results reported in patent publication US20050222408A1, “Heterocyclic amides with anti-tuberculosis activity” (priority 2003, published 2005).
# System: Vero cells
# Experiment: Cytotoxicity, alamar blue assay against Vero cells
# Format: cell-based
# Settings: Chlorocebus sabaeus, Vero, read-out: ToxIC50
row,SMILES,IC50 [µg/mL]
1,"O=C(NCCc1ccccc1)c1ccc([N+](=O)[O-])o1 [Compound 27, 5-Nitro-furan-2-carboxylic acid phenethyl-amide]",25.2
2,"COc1ccc(CCNC(=O)c2ccc([N+](=O)[O-])o2)cc1 [Compound 28, 5-Nitro-furan-2-carboxylic acid [2-(4-methoxy-phenyl)-ethyl]-amide]",20.4

# Same assay, conditions: Chlorocebus sabaeus; Table 1; Vero cells, alamar blue; unit inferred; read-out: ToxIC50
row,SMILES,IC50 [µg/mL]
1,"O=C(NC1CCCCC1)c1ccc([N+](=O)[O-])o1 [Compound 15, 5-Nitro-furan-2-carboxylic acid cyclohexylamide]",9.08
2,"O=C(NC12CC3CC(CC(C3)C1)C2)c1ccc([N+](=O)[O-])o1 [Compound 16, 5-Nitro-furan-2-carboxylic acid adamantan-1-ylamide]",9.43
3,"O=C(Nc1ccccc1)c1ccc([N+](=O)[O-])o1 [Compound 17, 5-Nitro-furan-2-carboxylic acid phenylamide]",2.19
4,"COc1ccc(CNC(=O)c2ccc([N+](=O)[O-])o2)cc1 [Compound 20, 5-Nitro-furan-2-carboxylic acid 4-methoxy-benzylamide]",16.4
5,"O=C(NCc1ccccc1Cl)c1ccc([N+](=O)[O-])o1 [Compound 21, 5-Nitro-furan-2-carboxylic acid 2-chloro-benzylamide]",11.8
6,"COc1cc(CNC(=O)c2ccc([N+](=O)[O-])o2)cc(OC)c1OC [Compound 24, 5-Nitro-furan-2-carboxylic acid 3,4,5-trimethoxy-benzylamide]",23.6
7,"O=C(NC1CCc2ccccc21)c1ccc([N+](=O)[O-])o1 (stereo not drawn) [Compound 26, 5-Nitro-furan-2-carboxylic acid indan-1-ylamide]",10.3
8,"COc1ccc(CNC(=O)c2ccc(Br)o2)cc1 [Compound 32, 5-Bromo-furan-2-carboxylic acid 4-methoxy-benzylamide]",90.5
9,"O=C(Nc1cccc(O)c1)c1ccc([N+](=O)[O-])o1 [Compound 35, 5-Nitro-furan-2-carboxylic acid(3-hydroxy-phenyl)-amide]",12.5
10,"COc1cccc(NC(=O)c2ccc([S+]([O-])c3ccccc3)o2)c1 (stereo not drawn) [Compound 38, 5-Benzenesulfinyl-furan-2-carboxylic acid(3-methoxy-phenyl)-amide]",65
11,"COc1cccc(NC(=O)c2ccc(S(=O)(=O)c3ccccc3)o2)c1 [Compound 39, 5-Benzenesulfonyl-furan-2-carboxylic acid(3-methoxy-phenyl)-amide]",25.9
12,"CCOC(=O)c1ccc(C(=O)Nc2cccc(OC)c2)o1 [Compound 40, 5-(3-Methoxy-phenylcarbamoyl)-furan-2-carboxylic acid ethyl ester]",200

# Same assay, conditions: Table 1; Vero cells, alamar blue; unit not given
row,SMILES,ToxIC50
1,"O=C(Nc1cccc(Br)c1)c1ccc([N+](=O)[O-])o1 [Compound 11, 5-Nitro-furan-2-carboxylic acid(3-bromo-phenyl)-amide]",15.37
2,"COc1ccc(NC(=O)c2ccc([N+](=O)[O-])o2)cc1 [Compound 14, 5-Nitro-furan-2-carboxylic acid(4-methoxy-phenyl)-amide]",21.44
3,"O=C(NCc1ccco1)c1ccc([N+](=O)[O-])o1 [Compound 18, 5-Nitro-furan-2-carboxylic acid(furan-2-ylmethyl)-amide]",4.08
4,"N#Cc1ccc(NC(=O)c2ccc([N+](=O)[O-])o2)cc1 [Compound 19, 5-Nitro-furan-2-carboxylic acid(4-cyano-phenyl)-amide]",3.53
5,"COc1ccc(CNC(=O)c2ccc([N+](=O)[O-])o2)c(OC)c1 [Compound 22, 5-Nitro-furan-2-carboxylic acid 2,4-dimetboxy-benzylamide]",5.38
6,"CC(NC(=O)c1ccc([N+](=O)[O-])o1)c1ccccc1 (stereo not drawn) [Compound 29, 5-Nitro-furan-2-carboxylic acid(1-phenyl-ethyl)-amide]",25.63

# System: M. tuberculosis H37Ra
# Experiment: MIC against M. tuberculosis H37Ra, micro broth dilution in microtiter plates
# Settings: M. tuberculosis H37Ra
row,SMILES,anti-tuberculosis MIC activity
1,"O=C(NCc1cccc(N2CCC(Cc3ccccc3)CC2)c1)c1ccc([N+](=O)[O-])o1 [Compound 70, 5-Nitro-furan-2-carboxylic acid 3-(4-benzyl-piperidin-1-yl)-benzylamide]",extremely potent
2,O=C(c1ccc([N+](=O)[O-])o1)N1CCC(Cc2ccccc2)CC1 [Compound 72],good activity
3,O=C(c1ccc([N+](=O)[O-])o1)N1CCN(Cc2ccccc2)CC1 [Compound 73],good activity
4,COc1cc2c(cc1OC)CN(C(=O)c1ccc([N+](=O)[O-])o1)CC2 [Compound 75],very potent

# Same assay, conditions: Mycobacterium tuberculosis, H37RA, 168 h, read-out: TB MIC, Table 1; M. tuberculosis H37Ra, 7 days at 37° C., MIC90
row,SMILES,MIC [µg/mL]
1,"COc1ccc(CCNC(=O)c2ccc([N+](=O)[O-])o2)cc1 [Compound 28, 5-Nitro-furan-2-carboxylic acid [2-(4-methoxy-phenyl)-ethyl]-amide]",0.8
2,"O=C(Nc1cccc(OCc2ccccc2)c1)c1ccc([N+](=O)[O-])o1 [Compound 37, 5-Nitro-furan-2-carboxylic acid(3-benzyloxy-phenyl)-amide]",12.5

# Same assay, conditions: Mycobacterium tuberculosis, H37RA, Table 6; M. tuberculosis H37Ra, MIC90
row,SMILES,MIC [µg/mL]
1,"O=C(c1ccc([N+](=O)[O-])o1)N1CCN(c2ncccn2)CC1 [Compound 81, (5-Nitro-furan-2-yl)-(4-pyrimidin-2-yl-piperazin-1-yl)-methanone]",0.1
2,"COc1ccc(CN2CCN(C(=O)c3ccc([N+](=O)[O-])o3)CC2)cc1 [Compound 85, [4-(4-Methoxy-benzyl)-piperazin-1-yl]-(5-nitro-furan-2-yl)-methanone]",0.1
3,"COc1cccc(CN2CCN(C(=O)c3ccc([N+](=O)[O-])o3)CC2)c1 [Compound 86, [4-(3-Methoxy-benzyl)-piperazin-1-yl]-(5-nitro-furan-2-yl)-methanone]",0.4
4,"O=C(c1ccc([N+](=O)[O-])o1)N1CCN(Cc2cccc(OCc3ccccc3)c2)CC1 [Compound 87, [4-(3-Benzyloxy-benzyl)-piperazin-1-yl]-(5-nitro-furan-2-yl)-methanone]",0.4
5,"CCN(CC)c1ccc(CN2CCN(C(=O)c3ccc([N+](=O)[O-])o3)CC2)cc1 [Compound 88, [4-(4-Diethylamino-benzyl)-piperazin-1-yl]-(5-nitro-furan-2-yl)-methanone]",0.4
6,"COc1ccc(CN2CCN(C(=O)c3ccc([N+](=O)[O-])o3)CC2)c(OC)c1 [Compound 89, [4-(2,4-Dimethoxy-benzyl)-piperazin-1-yl]-(5-nitro-furan-2-yl)-methanone]",0.2
7,"O=C(c1ccc([N+](=O)[O-])o1)N1CCN(Cc2ccc(F)cc2)CC1 [Compound 90, [4-(4-Fluoro-benzyl)-piperazin-1-yl]-(5-nitro-furan-2-yl)-methanone]",0.4
8,"CC(=O)c1ccc(N2CCN(C(=O)c3ccc([N+](=O)[O-])o3)CC2)cc1 [Compound 91, 1-{4-[4-(5-Nitro-furan-2-carbonyl)-piperazin-1-yl]-phenyl}-ethanone]",0.0031
9,"COc1ccc(N2CCN(C(=O)c3ccc([N+](=O)[O-])o3)CC2)cc1 [Compound 107, [4-(4-Methoxy-phenyl)-piperazin-1-yl]-(5-nitro-furan-2-yl)-methanone]",0.05
10,"O=C(c1ccc(F)cc1)N1CCN(C(=O)c2ccc([N+](=O)[O-])o2)CC1 [Compound 109, [4-(4-Fluoro-benzoyl)-piperazin-1-yl]-(5-nitro-furan-2-yl)-methanone]",0.05
11,"COc1ccc(C(=O)N2CCN(C(=O)c3ccc([N+](=O)[O-])o3)CC2)cc1 [Compound 110, [4-(4-Methoxy-benzoyl)-piperazin-1-yl]-(5-nitro-furan-2-yl)-methanone]",0.05
12,"CN1CCN(/N=C/c2ccc(CNC(=O)c3ccc([N+](=O)[O-])o3)cc2)CC1 [Compound 111, 5-Nitro-furan-2-carboxylic acid 4-[(4-methyl-piperazin-1-ylimino)-methyl]-benzylamide]",0.1

# Same assay, conditions: Table 1; M. tuberculosis H37Ra, 7 days at 37° C., MIC90
row,SMILES,TB MIC [µg/mL]
1,COc1ccc(NC(=O)c2ccc([N+](=O)[O-])o2)cc1Cl [Compound 1],1.6
2,"O=C(Nc1cccc(Br)c1)c1ccc([N+](=O)[O-])o1 [Compound 11, 5-Nitro-furan-2-carboxylic acid(3-bromo-phenyl)-amide]",1.6
3,"COc1ccc(NC(=O)c2ccc([N+](=O)[O-])o2)cc1 [Compound 14, 5-Nitro-furan-2-carboxylic acid(4-methoxy-phenyl)-amide]",0.4
4,"O=C(NCc1ccco1)c1ccc([N+](=O)[O-])o1 [Compound 18, 5-Nitro-furan-2-carboxylic acid(furan-2-ylmethyl)-amide]",6.25
5,"N#Cc1ccc(NC(=O)c2ccc([N+](=O)[O-])o2)cc1 [Compound 19, 5-Nitro-furan-2-carboxylic acid(4-cyano-phenyl)-amide]",0.8
6,"COc1ccc(CNC(=O)c2ccc([N+](=O)[O-])o2)c(OC)c1 [Compound 22, 5-Nitro-furan-2-carboxylic acid 2,4-dimetboxy-benzylamide]",0.4
7,"CC(NC(=O)c1ccc([N+](=O)[O-])o1)c1ccccc1 (stereo not drawn) [Compound 29, 5-Nitro-furan-2-carboxylic acid(1-phenyl-ethyl)-amide]",1.6
8,CN(C(=O)c1ccc([N+](=O)[O-])o1)c1ccccc1 [Compound 41],3.12
9,COc1ccc(N(C)C(=O)c2ccc([N+](=O)[O-])o2)cc1 [Compound 42],6.25
10,O=C(c1ccc([N+](=O)[O-])o1)N1CCc2ccccc21 [Compound 43],0.8
11,O=C(Nc1cccnc1)c1ccc([N+](=O)[O-])o1 [Compound 45],6.25
12,O=C(Nc1ccncc1)c1ccc([N+](=O)[O-])o1 [Compound 46],3.12
13,"O=C(NCc1ccccn1)c1ccc([N+](=O)[O-])o1 [Compound 49, 5-nitro-furan-2-carboxylic acid(pyridin-2-ylmethyl)-amide]",0.8
14,"COc1cccc2sc(NC(=O)c3ccc([N+](=O)[O-])o3)nc12 [Compound 50, 5-nitro-furan-2-carboxylic acid(4-methoxy-benzothiazol-2-yl)-amide]",1.6
15,"COc1cc(NC(=O)c2ccc([N+](=O)[O-])o2)ncn1 [Compound 51, 5-nitro-furan-2-carboxylic acid(6-methoxy-pyrimin-4-yl)-amide]",1.6

# Same assay, conditions: Table 5; M. tuberculosis H37Ra, MIC90
row,SMILES,MIC [µg/mL]
1,"O=C(NCc1ccc(N2CC[S+]([O-])CC2)cc1)c1ccc([N+](=O)[O-])o1 [Compound 93, 5-Nitro-furan-2-carboxylic acid 4-(1-oxo-¼-thiomorpholin-4-yl)-benzylamide]",0.8
2,"O=C(NCc1ccc(N2CCS(=O)(=O)CC2)cc1)c1ccc([N+](=O)[O-])o1 [Compound 94, 5-Nitro-furan-2-carboxylic acid 4-(1,1-dioxo-⅙-thiomorpholin-4-yl)-benzylamide]",6.25

# Same assay, conditions: Table 6; M. tuberculosis H37Ra, MIC90
row,SMILES,MIC [µg/mL]
1,"O=C(c1ccc([N+](=O)[O-])o1)N1CCN(c2ccc(F)cc2)CC1 [Compound 108, [4-(4-Fluoro-phenyl)-piperazin-1-yl]-(^5-nitro-furan-2-yl)-methanone]",0.025

# Same assay, conditions: quoted
row,SMILES,MIC [µg/mL]
1,CN(C(=O)c1ccc([N+](=O)[O-])o1)c1ccccc1 [Compound 41],3.1
